Assay results from patent US5430062A, “Stilbene derivatives as anticancer agents” (priority 1993, dated 1995).
Several values for one entry are separate records, joined by “and”; a condition that tells them apart may be missing. Identical values can stand only once. Like-named read-outs stand apart in the source and are kept apart here.

Columns and labels:
tubulin = assay: Inhibition of tubulin polymerization (turbidimetry); type: biochemical, bovine; settings: Hydrochloride
CCRF-CBM leukemia = assay: Cytotoxicity, CCRF-CBM; type: cell-based; settings: read-out: Log10 GI50, CCRF-CBM (converted)
Description: (§1) A total of 55 cell lines from the leukemia, non-small cell lung cancer, small cell lung cancer, colon cancer, CNS cancer, melanoma, ovarian cancer, and renal cancer panels were examined.

K-562 leukemia = assay: Cytotoxicity, K-562; type: cell-based
Description: as §1

[1] = system: A549/ATCC non-small cell lung cancer; assay: Cytotoxicity, A549/ATCC; type: cell-based; settings: Homo sapiens, read-out: Log10 GI50, A549/ATCC (converted)
Description: as §1

[2] = system: NCI-H23 non-small cell lung cancer; assay: Cytotoxicity, NCI-H23; type: cell-based; settings: Homo sapiens, read-out: Log10 GI50, NCI-H23 (converted)
Description: as §1

HCT-15 colon cancer = assay: Cytotoxicity, HCT-15; type: cell-based; settings: Homo sapiens, read-out: Log10 GI50, HCT-15 (converted)
Description: as §1

KM12 colon cancer = assay: Cytotoxicity, KM12; type: cell-based; settings: Homo sapiens, read-out: Log10 GI50, KM12 (converted)
Description: as §1

SW-620 colon cancer = assay: Cytotoxicity, SW-620; type: cell-based; settings: Homo sapiens, read-out: Log10 GI50, SW-620 (converted)
Description: as §1

SF-268 CNS cancer = assay: Cytotoxicity, SF-268; type: cell-based; settings: Homo sapiens, SF-268, read-out: Log10 GI50, SF-268 (converted)
Description: as §1

SNB-19 CNS cancer = assay: Cytotoxicity, SNB-19; type: cell-based; settings: Homo sapiens, read-out: Log10 GI50, SNB-19 (converted)
Description: as §1

XF498 CNS cancer = assay: Cytotoxicity, XF498; type: cell-based; settings: Homo sapiens, read-out: Log10 GI50, XF498 (converted)
Description: as §1

LOX IMVI melanoma = assay: Cytotoxicity, LOX IMVI; type: cell-based; settings: Homo sapiens, read-out: Log10 GI50, LOX IMVI (converted)
Description: as §1

M19-MEL melanoma = assay: Cytotoxicity, M19-MEL; type: cell-based; settings: Homo sapiens, read-out: Log10 GI50, M19-MEL (converted)
Description: as §1

IGROVI ovarian cancer = assay: Cytotoxicity, IGROVI; type: cell-based; settings: read-out: Log10 GI50, IGROVI (converted)
Description: as §1

OVCAR-4 ovarian cancer = assay: Cytotoxicity, OVCAR-4; type: cell-based; settings: Homo sapiens, read-out: Log10 GI50, OVCAR-4 (converted)
Description: as §1

OVCAR-5 ovarian cancer = assay: Cytotoxicity, OVCAR-5; type: cell-based; settings: Homo sapiens, read-out: Log10 GI50, OVCAR-5 (converted)
Description: as §1

SK-OV-3 ovarian cancer = assay: Cytotoxicity, SK-OV-3; type: cell-based; settings: Homo sapiens, read-out: Log10 GI50, SK-OV-3 (converted)
Description: as §1

786-0 renal cancer = assay: Cytotoxicity, 786-0; type: cell-based; settings: Homo sapiens, read-out: Log10 GI50, 786-0 (converted)
Description: as §1

Water solubility = type: physicochemical
M14 melanoma = assay: Cytotoxicity, M14; settings: read-out: cytotoxicity GI50, M14, 50% growth inhibition, average of two determinations, 8640 min, Hydrochloride
[3] = system: DMS 273 small cell lung cancer; assay: Cytotoxicity, DMS 273; settings: Hydrochloride
COLO 205 colon cancer = assay: Cytotoxicity, COLO 205
HL-60 (TB) leukemia = assay: Cytotoxicity, HL-60(TB) leukemia; settings: read-out: cytotoxicity GI50, HL-60(TB); 50% growth inhibition; average of two determinations; 8640 min; Hydrochloride, 8640 min

With `COc1cc(CNc2ccc(C)cc2)cc(OC)c1OC.Cl` [110a, 4-Methyl-N-(3,4,5-trimethoxybenzyl)aniline Hydrochloride] the IC50 (tubulin; Table X, different glutamate preparation (1M monosodium glutamate and GTP), read-out: inhibn of tubulin polymn IC50 (±SD)) was 3500 nM, the IC50 (tubulin; benzylanilines, Table X series, read-out: tubulin polymerization IC50) was 3500 nM and the GI50 (CCRF-CBM leukemia) was 282 nM. The GI50 (K-562 leukemia; Homo sapiens, K562, read-out: Log10 GI50, K-562 (converted)) was less than 100 nM, the “Log10 GI50, K-562” value (K-562 leukemia; Hydrochloride) was -7.00 and the GI50 [1] was 513 nM. The GI50 [2] was 407 nM, the GI50 (HCT-15 colon cancer) was 245 nM and the GI50 (KM12 colon cancer) was 759 nM. For the same compound, the GI50 (SW-620 colon cancer) was 110 nM, the GI50 (SF-268 CNS cancer) was 912 nM and the GI50 (SNB-19 CNS cancer) was 295 nM. It also gave a GI50 (XF498 CNS cancer) of 468 nM, a GI50 (LOX IMVI melanoma) of 851 nM and a GI50 (M19-MEL melanoma) of 331 nM. The GI50 (IGROVI ovarian cancer) was 708 nM, the GI50 (OVCAR-4 ovarian cancer) was 21400 nM and the GI50 (OVCAR-5 ovarian cancer) was 1350 nM. The GI50 (SK-OV-3 ovarian cancer) was 269 nM, the GI50 (786-0 renal cancer) was 324 nM and the “water solubility (in words)” value (Water solubility) was “water soluble”. The GI50 (M14 melanoma) was 292 nM, the “Log10 GI50, DMS 273” value [3] was < -7.00 and -7.03 and the GI50 ([3]; read-out: cytotoxicity GI50, DMS 273, 50% growth inhibition, average of two determinations, 8640 min, 8640 min) was 104 nM. For the same compound, the “Log10 GI50, COLO 205” value (COLO 205 colon cancer) was -6.67, the GI50 (COLO 205 colon cancer; read-out: cytotoxicity GI50, COLO 205, 50% growth inhibition, average of two determinations, 8640 min, Hydrochloride, 8640 min) was 219 nM and the GI50 (HL-60 (TB) leukemia) was 72.2 nM.
